Assays:
Settings in all cases: incubation time: 72 h
CAL-148 [1] = test: normalised viability (% of control), CellTiter-Blue; higher = more viable cells (about 100 = DMSO control)
Experimental: (§1)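 DSRT, CellTiter-Blue viability, 72 h incubation. Signal is normalised to DMSO and benzethonium chloride controls. Value is the normalised response at dose 9.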

CAL-51 [2] = test: as above
Experimental: as §1

CAL-85-1 [3] = test: as above
Experimental: as §1

DU-4475 [4] = test: as above
Experimental: as §1

HDQ-P1 [5] = test: as above
Experimental: as §1

MDA-MB-453 [6] = test: as above
Experimental: as §1

DU-4475 [7] = test: normalised viability (% of control), CellTiter-Blue; higher = more viable cells (100 = DMSO, 0 = benzethonium chloride kill control)
Outline: (§2)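 Breast cancer cell lines in 20 µl suspension were seeded onto 384-well plates pre-loaded with compound dissolved in 5 µl medium, then incubated 72 h. CellTiter-Blue reagent (2.5 µl) was added for 2 h at 37 °C and fluorescence read at 560/590 nm. Each plate was normalised to vehicle (100) and a positive kill control (0), with Z'-factor quality control. The value is normalised viability at one listed concentration of the series.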

MDA-MB-468 [8] = test: as above
Outline: as §2

BT-474 = test: drug sensitivity score (DSS), CellTox Green (DSS (AUC-based score)); higher = stronger drug effect (viability inhibition or cytotoxicity); extreme values may be limits of the assay
Outline: (§3)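 Breast cancer cell lines (20 µl suspension) were seeded into 384-well plates holding compound at 5 concentrations in 10-fold steps over a compound-specific 10,000-fold range, then incubated 72 h. CellTox Green fluorescence (485/520 nm) was read first, then CellTiter-Glo luminescence after 10 min at room temperature. Each plate was normalised to 0.1 % DMSO and a positive kill control. The drug sensitivity score was calculated from the area under the fitted dose-response curve.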

BT-549 = test: as above
Outline: as §3

CAL-120 = test: as above
Outline: as §3

CAL-148 [9] = test: as above
Outline: as §3

CAL-51 [10] = test: as above
Outline: as §3

CAL-85-1 [11] = test: as above
Outline: as §3

DU-4475 [12] = test: as above
Outline: as §3

HCC1143 = test: as above
Outline: as §3

HCC1599 = test: as above
Outline: as §3

HCC1937 = test: as above
Outline: as §3

HDQ-P1 [13] = test: as above
Outline: as §3

MCF-10A = test: as above
Outline: as §3

MDA-MB-231 = test: as above
Outline: as §3

MDA-MB-436 = test: as above
Outline: as §3

MDA-MB-453 [14] = test: as above
Outline: as §3

MDA-MB-468 [15] = test: as above
Outline: as §3

MFM-223 = test: as above
Outline: as §3

Hs578T = test: as above
Outline: as §3

Structure (SMILES): C=CC(=O)N1CCC[C@@H](n2nc(-c3ccc(Oc4ccccc4)cc3)c3c(N)ncnc32)C1
- normalised viability (CAL-148 [1]; 1000 nM): 76.3%
- normalised viability (CAL-51 [2]; 1000 nM): 86.5%
- normalised viability (CAL-85-1 [3]; 1000 nM): 49.1%
- normalised viability (DU-4475 [4]; 1000 nM): 97.8%
- normalised viability (HDQ-P1 [5]; 1000 nM): 69.1%
- normalised viability (MDA-MB-453 [6]; 1000 nM): 26.5%
- normalised viability (DU-4475 [7]; 0.1 nM): 94.8%
- normalised viability (MDA-MB-468 [8]; 0.1 nM): 103%

Structure (SMILES): CC(=O)Nc1cccc(-n2c(=O)n(C3CC3)c(=O)c3c(Nc4ccc(I)cc4F)n(C)c(=O)c(C)c32)c1
- normalised viability (CAL-148 [1]; 250 nM): 87.6%
- normalised viability (CAL-51 [2]; 250 nM): 60.5%
- normalised viability (CAL-85-1 [3]; 250 nM): 31.2%
- normalised viability (DU-4475 [4]; 250 nM): -1.53%
- normalised viability (HDQ-P1 [5]; 250 nM): 63.6%
- normalised viability (MDA-MB-453 [6]; 250 nM): 50.9%
- normalised viability (DU-4475 [7]; 0.025 nM): 105%
- normalised viability (MDA-MB-468 [8]; 0.025 nM): 112%

Structure (SMILES): CCc1cncnc1N1CCN(Cc2nc3ccc(C(F)(F)F)cc3[nH]2)CC1
- normalised viability (CAL-148 [1]; 10000 nM): 108%
- normalised viability (CAL-51 [2]; 10000 nM): 64%
- normalised viability (CAL-85-1 [3]; 10000 nM): 110%
- normalised viability (DU-4475 [4]; 10000 nM): 91.8%
- normalised viability (HDQ-P1 [5]; 10000 nM): 110%
- normalised viability (MDA-MB-453 [6]; 10000 nM): 54.6%
- normalised viability (DU-4475 [7]; 1 nM): 93.2%
- normalised viability (MDA-MB-468 [8]; 1 nM): 109%
- drug sensitivity score (BT-474): 0
- drug sensitivity score (BT-549): 0
- drug sensitivity score (CAL-120): 0
- drug sensitivity score (CAL-148 [9]): 0
- drug sensitivity score (CAL-51 [10]): 0
- drug sensitivity score (CAL-85-1 [11]): 0
- drug sensitivity score (DU-4475 [12]): 0
- drug sensitivity score (HCC1143): 0
- drug sensitivity score (HCC1599): 0
- drug sensitivity score (HCC1937): 0
- drug sensitivity score (HDQ-P1 [13]): 0
- drug sensitivity score (MCF-10A): 0
- drug sensitivity score (MDA-MB-231): 0
- drug sensitivity score (MDA-MB-436): 0
- drug sensitivity score (MDA-MB-453 [14]): 0
- drug sensitivity score (MDA-MB-468 [15]): 0
- drug sensitivity score (MFM-223): 0

Structure (SMILES): Cc1cnc(NC(=O)Nc2cc(Br)c(C)cc2OC[C@@H]2CNCCO2)cn1
- normalised viability (CAL-148 [1]; 1000 nM): 56.7%
- normalised viability (CAL-51 [2]; 1000 nM): 89.3%
- normalised viability (CAL-85-1 [3]; 1000 nM): 68.3%
- normalised viability (DU-4475 [4]; 1000 nM): 72%
- normalised viability (HDQ-P1 [5]; 1000 nM): 106%
- normalised viability (MDA-MB-453 [6]; 1000 nM): 65.2%
- normalised viability (DU-4475 [7]; 0.1 nM): 108%
- normalised viability (MDA-MB-468 [8]; 0.1 nM): 110%

Structure (SMILES): NCCCNCCSP(=O)(O)O [Amifostine]
- normalised viability (CAL-148 [1]; 10000 nM): 95.2%
- normalised viability (CAL-51 [2]; 10000 nM): 108%
- normalised viability (CAL-85-1 [3]; 10000 nM): 89.9%
- normalised viability (DU-4475 [4]; 10000 nM): 90.6%
- normalised viability (HDQ-P1 [5]; 10000 nM): 100%
- normalised viability (MDA-MB-453 [6]; 10000 nM): 86.4%
- normalised viability (DU-4475 [7]; 1 nM): 91.6%
- normalised viability (MDA-MB-468 [8]; 1 nM): 111%

Structure (SMILES): CC[C@H](Nc1ncnc2[nH]cnc12)c1nc2cccc(F)c2c(=O)n1-c1ccccc1 [CAL-101]
- normalised viability (CAL-148 [1]; 10000 nM): 88.1%
- normalised viability (CAL-51 [2]; 10000 nM): 57.3%
- normalised viability (CAL-85-1 [3]; 10000 nM): 47.5%
- normalised viability (DU-4475 [4]; 10000 nM): -0.99%
- normalised viability (HDQ-P1 [5]; 10000 nM): 61.3%
- normalised viability (MDA-MB-453 [6]; 10000 nM): 67.4%
- normalised viability (DU-4475 [7]; 1 nM): 106%
- normalised viability (MDA-MB-468 [8]; 1 nM): 100%

Structure (SMILES): O=C(O)CCCCC(CCSCc1ccccc1)SCc1ccccc1 (configuration not stated) [CPI-613]
- drug sensitivity score (BT-474): 0
- drug sensitivity score (BT-549): 0
- drug sensitivity score (CAL-120): 0
- drug sensitivity score (CAL-148 [9]): 0
- drug sensitivity score (CAL-51 [10]): 0
- drug sensitivity score (CAL-85-1 [11]): 0.118
- drug sensitivity score (DU-4475 [12]): 0
- drug sensitivity score (HCC1143): 0
- drug sensitivity score (HCC1599): 0
- drug sensitivity score (HCC1937): 0
- drug sensitivity score (HDQ-P1 [13]): 0
- drug sensitivity score (Hs578T): 0
- drug sensitivity score (MCF-10A): 0
- drug sensitivity score (MDA-MB-231): 0
- drug sensitivity score (MDA-MB-436): 0
- drug sensitivity score (MDA-MB-453 [14]): 0
- drug sensitivity score (MDA-MB-468 [15]): 0
- drug sensitivity score (MFM-223): 0

Structure (SMILES): Cc1ccc(-c2cc(C(F)(F)F)nn2-c2ccc(S(N)(=O)=O)cc2)cc1 [Celecoxib]
- normalised viability (CAL-148 [1]; 10000 nM): 55.1%
- normalised viability (CAL-51 [2]; 10000 nM): 90.6%
- normalised viability (CAL-85-1 [3]; 10000 nM): 63.4%
- normalised viability (DU-4475 [4]; 10000 nM): 68.5%
- normalised viability (HDQ-P1 [5]; 10000 nM): 80.3%
- normalised viability (MDA-MB-453 [6]; 10000 nM): 34%
- normalised viability (DU-4475 [7]; 1 nM): 89%
- normalised viability (MDA-MB-468 [8]; 1 nM): 102%
- drug sensitivity score (BT-474): 0
- drug sensitivity score (BT-549): 0
- drug sensitivity score (CAL-120): 0
- drug sensitivity score (CAL-148 [9]): 0
- drug sensitivity score (CAL-51 [10]): 0
- drug sensitivity score (CAL-85-1 [11]): 0
- drug sensitivity score (DU-4475 [12]): 0
- drug sensitivity score (HCC1143): 0
- drug sensitivity score (HCC1599): 0
- drug sensitivity score (HCC1937): 0
- drug sensitivity score (HDQ-P1 [13]): 0
- drug sensitivity score (MCF-10A): 0
- drug sensitivity score (MDA-MB-231): 0
- drug sensitivity score (MDA-MB-436): 0
- drug sensitivity score (MDA-MB-453 [14]): 0
- drug sensitivity score (MDA-MB-468 [15]): 0
- drug sensitivity score (MFM-223): 0

Structure (SMILES): O=C(/C=C/c1cccnc1)NCCCCC1CCN(C(=O)c2ccccc2)CC1 [Daporinad]
- drug sensitivity score (BT-474): 0
- drug sensitivity score (BT-549): 0
- drug sensitivity score (CAL-120): 0
- drug sensitivity score (CAL-148 [9]): 0
- drug sensitivity score (CAL-51 [10]): 0
- drug sensitivity score (CAL-85-1 [11]): 0
- drug sensitivity score (DU-4475 [12]): 0
- drug sensitivity score (HCC1143): 0
- drug sensitivity score (HCC1599): 0
- drug sensitivity score (HCC1937): 10.4
- drug sensitivity score (HDQ-P1 [13]): 0
- drug sensitivity score (Hs578T): 0
- drug sensitivity score (MCF-10A): 0
- drug sensitivity score (MDA-MB-231): 0
- drug sensitivity score (MDA-MB-436): 0
- drug sensitivity score (MDA-MB-453 [14]): 0
- drug sensitivity score (MDA-MB-468 [15]): 0.89
- drug sensitivity score (MFM-223): 0

Structure (SMILES): O=C(/C=C/c1cccnc1)NCCCCC1CCN(C(=O)c2ccccc2)CC1 [FK-866]
- normalised viability (CAL-148 [1]; 1000 nM): 44.2%
- normalised viability (CAL-51 [2]; 1000 nM): 34%
- normalised viability (CAL-85-1 [3]; 1000 nM): 49.2%
- normalised viability (DU-4475 [4]; 1000 nM): 3.53%
- normalised viability (HDQ-P1 [5]; 1000 nM): 58.5%
- normalised viability (MDA-MB-453 [6]; 1000 nM): 19.9%
- normalised viability (DU-4475 [7]; 0.1 nM): 102%
- normalised viability (MDA-MB-468 [8]; 0.1 nM): 106%

Structure (SMILES): CC[C@H](Nc1ncnc2[nH]cnc12)c1nc2cccc(F)c2c(=O)n1-c1ccccc1 [GS-1101]
- drug sensitivity score (BT-474): 0
- drug sensitivity score (BT-549): 0
- drug sensitivity score (CAL-120): 0
- drug sensitivity score (CAL-148 [9]): 0
- drug sensitivity score (CAL-51 [10]): 0
- drug sensitivity score (CAL-85-1 [11]): 0
- drug sensitivity score (DU-4475 [12]): 0
- drug sensitivity score (HCC1143): 0
- drug sensitivity score (HCC1599): 0
- drug sensitivity score (HCC1937): 0
- drug sensitivity score (HDQ-P1 [13]): 0
- drug sensitivity score (Hs578T): 0
- drug sensitivity score (MCF-10A): 0
- drug sensitivity score (MDA-MB-231): 4.13
- drug sensitivity score (MDA-MB-436): 0
- drug sensitivity score (MDA-MB-453 [14]): 0
- drug sensitivity score (MDA-MB-468 [15]): 3.82
- drug sensitivity score (MFM-223): 0

— the supplement of paper PMC4862054
